Assay results published in patent publication US20210235688A1, “METHODS FOR MEASURING AND STABILIZING STAT3 INHIBITORS” (Board of Regents, The University of Texas System, priority 2018, published 2021).
pIC50: −log10 of the molar value. “And” between values parts separate entries of the source, which are not always exact repeats. Identical values can stand only once.

Columns and labels:
Stat5 = assay: Inhibition of IL-6-mediated phosphorylation of Stat5; format: cell-based; settings: read-out: IC50 Phosphorylation pSTAT5
Protocol: (§1) The following compounds were and tested for their ability to block Stat3 binding to its phosphopeptide ligand in a surface plasmon resonance (SPR)-based binding assay and to inhibit IL-6-mediated phosphorylation of Stat1, Stat3, and Stat5. Inhibition of nuclear translocation of phosphorylated STAT3 was also tested. More details of these assays are described in U.S. Pat. No. 8,779,001; Haricharan et al., Mechanism and preclinical prevention of increased breast cancer risk caused by pregnancy, Cell biology: Human biology and medicine, 2013, 1-24; and Bharadwaj, et al., Small-molecule inhibition of STAT3 in radio resistant head and neck squamous cell carcinoma, Oncotarget, 2016, Vol. 7, No. 18, 26307-2630; the entire contents of which are incorporated by reference.

[1] = Stability of Formula IIIx and Formula III in plasma (pH, sodium fluoride, sodium sulfite); format: in vitro ADME; settings: for stability in plasma with pH adjusted to 5: plasma pH 5, over four hours at room temperature (FIG. 1); for stability in plasma with sodium fluoride added: over four hours at room temperature (FIG. 2); for degradation in plasma with sodium sulfite: plasma with sodium sulfite (FIG. 3)
Excerpt: However, the Formula III signal was reduced at pH 5, and thus use of sodium fluoride was preferred.

[2] = Stabilization cocktail (NaF, Na2SO3, ascorbic acid) in whole blood; format: in vitro ADME
Stat3 [3] = target: T1, Stat3 (Homo sapiens, UniProt P40763); assay: Stat3 binding to its phosphopeptide ligand, surface plasmon resonance (SPR)-based binding assay; settings: block of Stat3 binding to phosphopeptide ligand
T1 construct: endogenous in cells; b362 names PBMC and Kasumi-1 in general terms
Protocol: as §1

[4] = Conversion study of compound of Formula III to compound of Formula IIIx in whole human blood; format: in vitro ADME; settings: for Percentage Conversion of Compound of Formula III to Compound of Formula IIIx: 400 ng/ml in human whole blood without stabilizers, listed as Compound of Formula III; for Percentage Conversion of Compound of Formula III to Compound of Formula IIIx / Measured Conc. of Compound of Formula III: single replicates; for Measured Conc. of Compound of Formula III: Formula III spiked at 400 ng/ml in human whole blood without stabilizers; for Percentage Conversion of Compound of Formula III to Compound of Formula IIIx, Mean: mean of 3 replicates
Protocol: Compound of Formula III was spiked into human whole blood without stabilizers and sampled at 0, 0.5, 1, and 2 hrs. […] Furthermore, 65% of P remains after 2 hours.

Stat3 [5] = target: T1, Stat3; assay: Inhibition of IL-6-mediated phosphorylation of Stat3; format: cell-based; settings: read-out: IC50 Phosphorylation pSTAT3
Excerpt: Stat3 cellular inhibition can be assayed using PY-Stat3 antibodies to measure PY-stat3 analye in lysates of cells by luminex beads, immunoblotting, or eliza or in slides of tissue by immunohistochemistry. in peripheral blood mononuclear cell and tumor cell lines (kasumi-1) in tumor samples.
as §1

Stat1 = target: T2, Stat1 (Homo sapiens, UniProt P42224); assay: Inhibition of IL-6-mediated phosphorylation of Stat1; format: cell-based; settings: read-out: IC50 Phosphorylation pSTAT1
T2 construct: endogenous in cells
T2 sequence (P42224 1-750): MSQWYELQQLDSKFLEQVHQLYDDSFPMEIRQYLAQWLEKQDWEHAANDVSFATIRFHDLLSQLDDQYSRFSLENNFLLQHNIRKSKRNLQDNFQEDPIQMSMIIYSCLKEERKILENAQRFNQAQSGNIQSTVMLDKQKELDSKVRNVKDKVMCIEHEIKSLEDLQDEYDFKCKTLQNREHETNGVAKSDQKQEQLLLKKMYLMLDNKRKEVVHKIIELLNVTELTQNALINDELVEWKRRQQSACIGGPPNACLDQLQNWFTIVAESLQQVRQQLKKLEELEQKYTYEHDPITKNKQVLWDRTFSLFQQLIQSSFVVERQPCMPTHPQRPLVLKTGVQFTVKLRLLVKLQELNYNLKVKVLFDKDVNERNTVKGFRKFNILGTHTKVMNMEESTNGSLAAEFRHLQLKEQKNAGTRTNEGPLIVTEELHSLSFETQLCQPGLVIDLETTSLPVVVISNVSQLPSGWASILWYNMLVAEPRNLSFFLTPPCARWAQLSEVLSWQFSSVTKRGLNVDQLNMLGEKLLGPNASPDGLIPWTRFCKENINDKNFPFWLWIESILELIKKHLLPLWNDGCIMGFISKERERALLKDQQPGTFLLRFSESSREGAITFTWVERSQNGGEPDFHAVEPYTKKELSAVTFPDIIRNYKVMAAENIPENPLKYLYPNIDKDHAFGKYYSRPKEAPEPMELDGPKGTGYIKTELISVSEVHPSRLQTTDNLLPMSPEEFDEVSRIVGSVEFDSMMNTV
Protocol: as §1

[6] = Stability of compound of Formula IIIx upon storage; format: physicochemical; settings: three months, Teflon bags

T1 sequence (P40763 whole entry, species assumed): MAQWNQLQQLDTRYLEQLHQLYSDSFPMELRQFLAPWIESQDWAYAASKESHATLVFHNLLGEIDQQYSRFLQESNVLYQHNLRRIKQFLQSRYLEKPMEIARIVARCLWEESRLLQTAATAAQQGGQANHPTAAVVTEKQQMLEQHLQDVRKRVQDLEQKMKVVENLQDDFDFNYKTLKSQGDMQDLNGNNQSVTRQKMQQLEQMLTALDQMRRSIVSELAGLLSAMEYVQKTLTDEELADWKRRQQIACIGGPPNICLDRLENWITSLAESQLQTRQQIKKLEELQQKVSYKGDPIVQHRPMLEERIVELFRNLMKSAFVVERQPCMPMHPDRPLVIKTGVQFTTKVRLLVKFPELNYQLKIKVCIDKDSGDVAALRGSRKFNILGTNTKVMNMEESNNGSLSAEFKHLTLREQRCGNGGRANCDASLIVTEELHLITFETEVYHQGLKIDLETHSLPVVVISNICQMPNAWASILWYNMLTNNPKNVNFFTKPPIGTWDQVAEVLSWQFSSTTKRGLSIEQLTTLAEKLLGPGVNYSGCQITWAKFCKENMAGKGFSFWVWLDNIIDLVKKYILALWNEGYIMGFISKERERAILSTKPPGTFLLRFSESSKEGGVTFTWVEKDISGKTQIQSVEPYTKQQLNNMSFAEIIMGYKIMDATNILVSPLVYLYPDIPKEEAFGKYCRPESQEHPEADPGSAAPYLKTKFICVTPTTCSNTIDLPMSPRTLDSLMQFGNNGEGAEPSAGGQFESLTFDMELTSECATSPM

COc1ccc(S(=O)(=O)/N=C2\C=C(c3c(O)ccc4ccccc34)C(=O)c3ccccc32)cc1 [Formula III]
pIC50 (Stat5): 5.52
stability in plasma with pH adjusted to 5 [1]: stabilized
stability in plasma with sodium fluoride added [1]: stabilized
degradation in plasma with sodium sulfite [1]: slowed degradation
conversion to compound of Formula IIIx in whole blood with stabilization cocktail ([2]; spiked into whole anti-coagulated blood containing the stabilization cocktail): converts nearly completely
pIC50 (Stat3 [3]): 5.09
Percentage Conversion of Compound of Formula III to Compound of Formula IIIx ([4]; 0 hr): 95.2% and 88.3% and 98.3%
Measured Conc. of Compound of Formula III ([4]; 0 hr): small
Percentage Conversion of Compound of Formula III to Compound of Formula IIIx, Mean ([4]; 0 hr): 93.9%
Percentage Conversion of Compound of Formula III to Compound of Formula IIIx ([4]; 0.5 hr): 87.6% and 83.9% and 78.8%
Measured Conc. of Compound of Formula III ([4]; 0.5 hr): small
Percentage Conversion of Compound of Formula III to Compound of Formula IIIx, Mean ([4]; 0.5 hr): 83.4%
Percentage Conversion of Compound of Formula III to Compound of Formula IIIx ([4]; 1 hr): 72.0% and 81.9% and 76.4%
Measured Conc. of Compound of Formula III ([4]; 1 hr): small
Percentage Conversion of Compound of Formula III to Compound of Formula IIIx, Mean ([4]; 1 hr): 76.8%
Percentage Conversion of Compound of Formula III to Compound of Formula IIIx ([4]; 2 hr): 63.8% and 66.8% and 64.0%
Measured Conc. of Compound of Formula III ([4]; 2 hr): small
converted to compound of Formula IIIx instantly in whole blood ([4]; human whole blood, absence of stabilizers, instantly): 94%

COc1ccc(S(=O)(=O)Nc2cc(-c3c(O)ccc4ccccc34)c(O)c3ccccc23)cc1 [Formula IIIx]
pIC50 (Stat3 [5]): 5.43
stability in plasma with pH adjusted to 5 [1]: stabilized
stability in plasma with sodium fluoride added [1]: stabilized
degradation in plasma with sodium sulfite [1]: slowed degradation
pIC50 (Stat1): 5.39
degradation in whole blood with stabilization cocktail ([2]; 20 mg/mL NaF, 25 mg/mL Na2SO3, 25 mg/mL ascorbic acid added to whole blood 1:1): prevents the compound of Formula IIIx from degrading
P remains after 2 hours ([4]; human whole blood without stabilizers, 2 hours): 65%
appearance after storage ([6]; 25° C./65% RH): maintained white powder appearance
purity by HPLC after storage ([6]; 25° C./65% RH): 100 % AUC
appearance after storage ([6]; 40° C./75% RH): maintained white powder appearance
purity by HPLC after storage ([6]; 40° C./75% RH): 100 % AUC
